Reference: PMC11794154, “Molecular basis for the diversification of lincosamide biosynthesis by pyridoxal phosphate-dependent enzymes” (Nature Chemistry, 2024)

Tests used:
CcbF = target: T1, CcbF (Streptomyces caelestis, UniProt E9JES7); experiment: X-ray crystal structure, […] Å; type: binding; conditions: covalent; internal aldimine with Lys260
T1 construct: full-length gene in pET42b (NdeI/XhoI), C-terminal His8 tag, expressed in E. coli BLR(DE3)/pGro7; catalytic Lys260; printed ccbF forward primer is identical to the lmbF one (likely misprint)

LmbF = target: T2, LmbF (Streptomyces lincolnensis, UniProt A9Y8R7); experiment: X-ray crystal structure, […] Å; type: binding; conditions: covalent; internal aldimine with Lys270
T2 construct: full-length gene in pET42b (NdeI/XhoI), C-terminal His8 tag, expressed in E. coli BLR(DE3)/pGro7; active site at dimer interface; catalytic Lys270
T2 sequence (A9Y8R7 entry or part of it): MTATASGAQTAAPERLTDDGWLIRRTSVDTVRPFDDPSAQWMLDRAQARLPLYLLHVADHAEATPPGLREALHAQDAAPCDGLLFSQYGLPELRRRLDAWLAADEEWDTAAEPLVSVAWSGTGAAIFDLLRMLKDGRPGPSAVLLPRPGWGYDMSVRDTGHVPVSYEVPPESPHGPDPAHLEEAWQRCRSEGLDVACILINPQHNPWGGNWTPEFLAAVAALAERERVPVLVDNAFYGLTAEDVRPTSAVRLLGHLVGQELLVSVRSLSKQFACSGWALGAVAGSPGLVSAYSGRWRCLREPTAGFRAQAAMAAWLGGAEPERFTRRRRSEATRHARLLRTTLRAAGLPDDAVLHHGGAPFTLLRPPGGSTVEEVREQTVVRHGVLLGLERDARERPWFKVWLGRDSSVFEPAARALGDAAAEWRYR

T1 sequence (E9JES7 entry or part of it): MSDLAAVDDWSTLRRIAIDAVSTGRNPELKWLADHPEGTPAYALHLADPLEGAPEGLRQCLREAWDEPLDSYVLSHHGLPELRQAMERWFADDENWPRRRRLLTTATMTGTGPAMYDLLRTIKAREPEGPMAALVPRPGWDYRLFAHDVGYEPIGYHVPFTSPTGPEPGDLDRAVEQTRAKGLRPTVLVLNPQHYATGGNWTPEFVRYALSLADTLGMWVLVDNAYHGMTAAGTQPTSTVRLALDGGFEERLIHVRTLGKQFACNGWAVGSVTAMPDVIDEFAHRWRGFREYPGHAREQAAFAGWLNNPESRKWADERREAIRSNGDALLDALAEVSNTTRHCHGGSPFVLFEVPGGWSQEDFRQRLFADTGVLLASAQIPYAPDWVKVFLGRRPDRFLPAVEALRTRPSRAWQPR

SMILES: Cc1ncc(COP(=O)(O)O)c(C=O)c1O [PLP]
- X-ray crystal structure, 1.8 Å (CcbF): we solved the X-ray crystal structures of LmbF and CcbF with PLP
- X-ray crystal structure, 1.7 Å (LmbF): we solved the X-ray crystal structures of LmbF and CcbF with PLP
